Data on three compounds can be found in PMC4663552, “Identification of Antiviral Agents Targeting Hepatitis B Virus Promoter from Extracts of Indonesian Marine Organisms by a Novel Cell-Based Screening Assay” (Marine Drugs, 2015).

Series [1] can be described thus: Cytotoxicity in HepG2.2.15.7 cells (MTS assay). The note with it: human, 9 days post-treatment, read-out: CC50 (reduction of cell viability). Type of series: cell-based. How it is done: (§1) HepG2.2.15.7 cells were seeded at 1 × 10^4 cells per well in a collagen coated 96-well plate (Corning, Corning, NY, USA) and incubated at 37 °C for 24 h before treatment. The tested compound was added to the culture medium at the indicated concentrations. The culture medium was exchanged every 3 days for fresh medium containing the compound. The treated cells and culture supernatants were harvested 9 days post-treatment and were subjected to MTS assay and estimation of HBV DNA, respectively. The culture supernatant was mixed with an equal volume of Sidestep lysis and stabilization buffer (Agilent Technologies, Santa Clara, CA, USA). The viral DNA included in the mixture was estimated by real-time quantitative PCR using the THUNDERBIRD Probe qPCR Mix (TOYOBO, Osaka, Japan). The forward and reverse primers targeting HBV surface region are 5′-[…]-3′ and 5′-[…]-3′, respectively. The fluorogenic probe was 5′-FAM-[…]-TAMRA-3 [40].
Background: Formazan colour is commonly taken as a measure of viable cells.

Another series concerns HBV. As to the kind of experiment: Anti HBV activity in HepG2.2.15.7 cells (supernatant HBV DNA, real-time qPCR). Type of series: cell-based, Hepatitis B virus. The note with it: for EC50: Hepatitis B virus, read-out: EC50 (inhibition of the HBV viral DNA release). How it is done: as §1
Background: Real-time PCR tracks product formation cycle by cycle.

Another series relates to HBV core promoter. Nature of the series: Cell-based HBV core promoter assay (luciferase reporter, Huh7 GL4.18 CURS_BC_AeUS cells). The note with it: Hepatitis B virus, Huh-7, 48 h incubation. How it is done: Huh7 GL4.18 CURS_BC_AeUS cells were seeded at 2 × 10^4 cells per well in a 48-well plate and then treated with 25 µg/mL each extracts 24 h after seeding cells. The treated cells were harvested 48 h post-treatment and then lysed with Cell culture lysis buffer (Promega, Madison, WI, USA). Luciferase activity was measured by using Luciferase assay systems (Promega, Madison, WI, USA). The resulting luminescence was detected as described above.

Another series has as its system MCF-7 cells. The arrangement: method as in PMID 18198840. The note with it: MCF-7 cells (a breast cancer cell line); cited from earlier work.
The next series deals with Tie2 kinase. Set-up: method as in PMID 15653332. The note with it: cited from earlier work.
Setting [2] is: 216 h, HepG2.2.15.7 cells, 9 days post-treatment, supernatant HBV DNA.

Read-outs that look alike come from different tables or passages of the source.

The term CC50 denotes the concentration giving 50% cytotoxicity. A word on the EC50: it is the concentration that produces a half-maximal response. `C=C1[C@H](CO)[C@@H](O)C[C@@H]1n1cnc2c(=O)[nH]c(N)nc21` [Entecavir, reference compound]: the CC50 at 9 days in series [1] is more than 100000 nM. The “Selectivity Index (CC50/EC50)” value with HBV (HepG2.2.15.7 cells) was more than 4761. Besides, the EC50 in the series with HBV (HepG2.2.15.7, 216 h) amounted to 21 ± 3 nM.

By IC50 is commonly meant the concentration at which inhibition is half-maximal. A lower IC50 goes with greater potency. As to `Oc1cc(Br)cc(Br)c1Oc1ccc(Br)cc1Br` [Compound 1, 3,5-dibromo-2-(2,4-dibromophenoxy)-phenol], the CC50 at 9 days in series [1] is 4190 ± 120 nM. Also, half-maximal inhibition in the series with HBV core promoter (IC50) was put at 2300 nM. Further, the “Effect on cell cycle” value with MCF-7 cells is “induces G1 phase cell cycle arrest”. Moreover, the “Effect on Tie2 kinase activity” value in the series with Tie2 kinase is “suppressed activity of Tie2 kinase”. Moreover, in the series with HBV (HepG2.2.15.7 cells), the “Selectivity Index (CC50/EC50)” value is 18.2. For the same compound, the concentration for a half-maximal effect (EC50) in the series with HBV (setting [2]) was 230 ± 70 nM.

Turning to `Oc1cc(Br)c(Br)c(Br)c1Oc1ccc(Br)cc1Br` [Compound 2, 3,4,5-tribromo-2-(2,4-dibromophenoxy)-phenol], the CC50 at 9 days in series [1] is 10300 ± 3690 nM. Besides, in the series on HBV core promoter, the 50% inhibitory concentration (IC50) amounted to 4900 nM. The “Selectivity Index (CC50/EC50)” value with HBV (HepG2.2.15.7 cells) stood at 12.8. For the same compound, in the series with HBV (setting [2]), the EC50 was determined as 800 ± 340 nM.
